Data set [1] in a line: Critical micellar concentration by surface tension (langmuir balance). Type of data set: physicochemical. The following applies: 25° C. As for the experimental part:
The amidinium salt of example 9 was dissolved at various concentrations in either water pH 7.0, PB (20 mM phosphate, pH 7.3) or in PBS (20 mM phosphate buffer, 150 mM NaCl, pH 7.3).
A langmuir balance (Krüss K12) was used to measure the surface tension of a solution of increasing amino-amidine concentration. […] The corresponding concentration was taken as CMC.
To determine the effect of protamine sulfate on the CMC protamine sulfate (PS) was added at a final concentration of 0.2 mg/mL to solutions of increasing concentration of the amidinium salt of Example 9.

Data set [2] has as its system COS-7L cells (monkey fibroblasts). Kind of data set: Transfection of fibroblast cells with micellar dispersions of an amidinium salt, beta-galactosidase activity assay. In kind it is cell-based. The following applies: pCMV-β plasmid, relative to Lipofectamine plus, 3 h + 20 h incubation. As for the experimental part: Functional transfection efficiency was then measured by means of a beta-galactosidase (hereinafter referred as β-GAL) activity assay as follows: cells were lysed by adding 250 μl of a lysis buffer (0.1 M potassium phosphate, 0.5% Triton® X-100, 0.1% deoxycholate, pH 7.0). The cell lysate (50 μl) was mixed with 50 μl o-nitrophenyl-β-D-galactopyranoside (1.54 mg/ml in 0.1 potassium phosphate buffer, pH 7.0) and incubated at 37° C. for 30 minutes. The reaction was terminated by adding 160 μl of 1 M Na2CO3 and absorbance was determined using a spectrophotometer at 405 nm. β-GAL activity was calculated using a β-GAL standard curve.
Immediately before the transfection experiments, the amidinium salt of Example 9 was dissolved at a concentration of 0.1 mg/mL in water containing 5.0 g/l glucose and 0.1 mg/mL protamine sulfate. The solution was successively vortexed, heated during 15 minutes at 50° C. and then cooled at 20° C.
COS-7L cells (monkey fibroblasts) were grown in DMEM supplemented with 10% heat inactivated foetal bovine serum and penicellin 100 IU/mL-streptomycin 100 μg/mL, and were maintained at 37° C. in a humidified 5% incubator. […]
(§1) Transfection efficiency was measured in terms of beta-galactosidase activity using the beta-galactosidase activity assay described in Example 5 above. Cytotoxicity was determined as described in Example 2 above.

The test system is the same in data set [3]. As to the kind of experiment: Cytotoxicity in the micellar transfection experiment, determined as in Example 2. Type of data set: cell-based. The following applies: transfection conditions of Example 12. As for the experimental part:
The resulting titrated liposomes were cooled and then passed through a 0.2 μm filter (in order to eliminate large particles) and an average liposome size of 90 nm was measured. Filtered liposomes were then packed in sterile vials and stored at 4° C. […] Cytotoxicity was determined by means of a (3-(4,5-dimethylthiazol-2-yl)-2,5-diphenyl tetrazolium bromide assay, using a kit commercially available from Promega Benelux (Leyden, The Netherlands). COS-7 monkey fibroblast cell survival was expressed as the amount of dye reduction relative to that of the untreated control cells. The titrated liposomes are not toxic on COS-7 cells, as determined by the Cytotox 96 non-radioactive cytotoxy assay G 1780.
COS-7L cells (monkey fibroblasts) were grown in DMEM supplemented with 10% heat inactivated foetal bovine serum and penicellin 100 IU/mL-streptomycin 100 μg/mL, and were maintained at 37° C. in a humidified 5% incubator. One day prior to the transfection experiment, the cells were seeded in a 24-well culture dish and allowed to reach at least 80% confluency.
as §1

In data set [4] the test system is Chinese hamster Ovary cells or K562 human myeloid cells. The following applies: MLV, WO 95/17378; cited from earlier work.

Regarding `CCCCCCCCCCCCCCN=C(CCNCCCCCCCCCCCCCC)NC(C)(C)C` [Example 9, N-terbutyl-N′-tetradecyl-3-tetradecyl-aminopropionamidine], the CMC in data set [1] (in PB (20 mM phosphate, pH 7.3)) was 5.25e-05 M; in data set [1] (in PBS (20 mM phosphate buffer, 150 mM NaCl, pH 7.3)) it was 6.75e-05 M; in data set [1] (in PBS + protamine sulfate 0.2 mg/mL) it was 2e-05 M; in data set [1] (in water pH 7.0, in M) it was 5×10^−4.

As to `CCCCCCCCCCCCCCN=C(CCNCCCCCCCCCCCCCC)NC(C)(C)C` [DiC14iPr, N-terbutyl-N′-tetradecyl-3-tetradecyl-aminopropionamidine], the β-gal relative activity in data set [2] stood at 150%. Moreover, the Toxicity entry in data set [3] is recorded as “None”. In data set [4], the transfection efficiencies was 60 to 68%.
